Results: patent US5622962A, “5α-reductase inhibitors” (priority 1995, dated 1997)
Like-named read-outs stand apart in the source and are kept apart here.

Legend:
[1] = molecular target: T1, Type I 5α-Reductase from Human Scalp (Homo sapiens, UniProt P18405); assay: Human Type I 5α-reductase assay (conversion of [3H]-testosterone to 5α-reduced metabolites); assay type: biochemical
T1 construct: Scalp punch biopsies from graft recipient sites were obtained from human hair transplant procedures; from tissue; host or cells: human scalp punch biopsies (hair transplant graft recipient sites), homogenate, 100,000×g pellet
T1 sequence (P18405 1-259): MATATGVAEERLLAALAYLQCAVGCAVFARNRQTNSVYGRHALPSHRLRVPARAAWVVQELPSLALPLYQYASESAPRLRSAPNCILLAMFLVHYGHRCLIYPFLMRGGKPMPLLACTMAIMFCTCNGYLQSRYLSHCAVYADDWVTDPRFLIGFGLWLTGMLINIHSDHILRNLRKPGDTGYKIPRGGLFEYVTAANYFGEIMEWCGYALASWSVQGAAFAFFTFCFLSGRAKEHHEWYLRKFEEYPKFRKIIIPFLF

[2] = molecular target: T2, Type II 5α-Reductase from Human Prostate (Homo sapiens, UniProt P31213); assay: Human Type II 5α-reductase assay (conversion of [3H]-testosterone to 5α-reduced metabolites); assay type: biochemical
T2 construct: The same procedure as above was used for preparations using tissue from prostate surgery; from tissue; host or cells: human prostate tissue from surgery, homogenate, 100,000×g pellet
T2 sequence (P31213 1-254): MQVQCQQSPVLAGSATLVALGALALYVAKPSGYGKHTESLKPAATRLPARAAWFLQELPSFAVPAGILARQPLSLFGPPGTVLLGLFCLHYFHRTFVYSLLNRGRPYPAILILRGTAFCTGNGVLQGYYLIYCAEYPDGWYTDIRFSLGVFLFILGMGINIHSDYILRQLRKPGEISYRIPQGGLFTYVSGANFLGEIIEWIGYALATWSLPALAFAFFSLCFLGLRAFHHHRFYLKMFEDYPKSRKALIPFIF

[3] = pH 7.5, 0.3 μM, 50 nM [3H]-testosterone, pH 7.5, 25°, 180 min, compared to control reaction mixtures, read-out: percent inhibition of Type I AR
[4] = pH 5.5, 0.3 μM, sodium acetate pH 5.5, 25°, 30 min, compared to control reaction mixtures, read-out: percent inhibition of Type II AR

SMILES	inhibition at 0.3 µM [1, 3]	inhibition at 0.3 µM [2, 4]	inhibition at 0.3 µM ([1]; pH 7.5, read-out: percent inhibition of Type I AR)	inhibition at 0.3 µM ([2]; pH 5.5, read-out: percent inhibition of Type II AR)
CN1C(=O)CC[C@]2(C)c3ccc(Sc4nc(-c5ccccc5)nc5ccccc45)cc3CC[C@@H]12 [Example 172, (+)-(4aR)-(10bR)-4-methyl-8-(2-phenyl-4-quinazolinylthio)-10b-methyl-1,2,3,4,4a,5,6,10b-octahydrobenzo[f]quinolin-3-one]	55%	36%	–	–
CN1C(=O)CC[C@]2(C)c3ccc(/C=C/c4ccccc4)cc3CC[C@@H]12 [Example 279, (4aR)-(10bR)-4,10b-dimethyl-8-(2-phenylethenyl)-1,2,3,4,4a,5,6,10b-octahydrobenzo[f]quinolin-3-one]	–	–	85%	60%
CN1C(=O)CC[C@]2(C)c3ccc(-c4ccc(S(C)(=O)=O)cc4)cc3CC[C@@H]12 [Example 204, (+)-(4aR)-(10bR)-4-methyl-8-(4-methylsulfonylphenyl)-10b-methyl-1,2,3,4,4a,5,6,10b-octahydrobenzo[f]quinolin-3-one]	34%	39%	–	–
CN1C(=O)CC[C@]2(C)c3ccc(-c4c5ccccc5cc5ccccc45)cc3CC[C@@H]12 [Example 61, (+)-(4aR)-(10bR)-4-methyl-8-(9-anthracenyl)-10b-methyl-1,2,3,4,4a,5,6,10b-octahydrobenzo[f]quinolin-3-one]	53%	36%	–	–
CN1C(=O)CC[C@]2(C)c3ccc(-c4cc(F)c([N+](=O)[O-])cc4F)cc3CC[C@@H]12 [Example 243, (+)-(4aR)-(10bR)-4-methyl-8-(2,5-difluoro-4-nitrophenyl)-10b-methyl-1,2,3,4,4a,5,6,10b-octahydrobenzo[f]quinolin-3-one]	88%	54%	–	–
C[C@]12CCC(=O)N[C@@H]1CCc1cc(SCc3ccccc3)ccc12 [Example 23, (4aR)-(10bR)-8-benzylthio-10b-methyl-1,2,3,4,4a,5,6,10b-octahydrobenzo[f]quinolin-3-one]	59%	31%	–	–
CN1C(=O)CC[C@]2(C)c3ccc(-c4cccc5ncccc45)cc3CC[C@@H]12 [Example 240, (+)-(4aR)-(10bR)-4-methyl-8-(5-quinolinyl)-10b-methyl-1,2,3,4,4a,5,6,10b-octahydrobenzo[f]quinolin-3-one]	55%	17%	–	–
CN1C(=O)CC[C@]2(C)c3ccc(-c4ccc(S(N)(=O)=O)cc4)cc3CC[C@@H]12 [Example 220, (+)-(4aR)-(10bR)-4-methyl-8-(4-sulfonamidophenyl)-10b-methyl-1,2,3,4,4a,5,6,10b-octahydrobenzo[f]quinolin-3-one]	67%	26%	–	–
CN1C(=O)CC[C@]2(C)c3ccc(-c4cccc(Cl)c4Cl)cc3CC[C@@H]12 [Example 73, (+)-(4aR)-(10bR)-4-methyl-8-(2,3-dichlorophenyl)-10b-methyl-1,2,3,4,4a,5,6,10b-octahydrobenzo[f]quinolin-3-one]	87%	16%	–	–
CN1C(=O)CC[C@]2(C)c3ccc(-c4cccc5cnccc45)cc3CC[C@@H]12 [Example 241, (+)-(4aR)-(10bR)-4-methyl-8-(5-isoquinolinyl)-10b-methyl-1,2,3,4,4a,5,6,10b-octahydrobenzo[f]quinolin-3-one]	65%	33%	–	–
CN1C(=O)CC[C@]2(C)c3ccc(-c4cccc(C(=O)NC(C)(C)C)c4)cc3CC[C@@H]12 [Example 34, (+)-(4aR)-(10bR)-4-methyl-8-(3-t-butylcarboxamidophenyl)-10b-methyl-1,2,3,4,4a,5,6,10b-octahydrobenzo[f]quinolin-3-one]	13%	5%	–	–
CN1C(=O)CC[C@]2(C)c3ccc(-c4ccc(O)c(C=O)c4)cc3CC[C@@H]12 [Example 58, (+)-(4aR)-(10bR)-4-methyl-8-(3-formyl-4-hydroxyphenyl)-10b-methyl-1,2,3,4,4a,5,6,10b-octahydrobenzo[f]quinolin-3-one]	65%	24%	–	–

Now from value to compound, other results behind:

inhibition at 0.3 µM [1, 3]	inhibition at 0.3 µM [2, 4]	SMILES	inhibition at 0.3 µM ([1]; pH 7.5, read-out: percent inhibition of Type I AR)	inhibition at 0.3 µM ([2]; pH 5.5, read-out: percent inhibition of Type II AR)
82%	37%	CN1C(=O)CC[C@]2(C)c3ccc(Cc4ccccc4)cc3CC[C@@H]12 [Example 287, (4aR)-(10bR)-8-benzyl-4,10b-dimethyl-1,2,3,4,4a, 5,6, 10b-octahydrobenzo[f]quinolin-3-one]	–	–
69%	36%	CN1C(=O)CC[C@]2(C)c3ccc(-c4nc5ccccc5o4)cc3CC[C@@H]12 [Example 251, (+)-(4aR)-(10bR)-4-methyl-8-(2-benzoxazolyl)-10b-methyl-1,2,3,4,4a,5,6,10b-octahydrobenzo[f]quinolin-3-one]	–	–
25%	15%	CN1C(=O)CC[C@]2(C)c3ccc(Sc4ccc5nc6ccccc6c(=O)n5n4)cc3CC[C@@H]12 [Example 176, (+)-(4aR)-(10bR)-4-methyl-8-(10-oxo-10H-2-pyridazino[6,1-b]-quinazolinylthio)-10b-methyl-1,2,3,4,4a,5,6,10b-octahydrobenzo[f]quinolin-3-one]	–	–
100%	32%	CN1C(=O)CC[C@]2(C)c3ccc(SCc4ccccc4)cc3CC[C@@H]12 [Example 136, (4aR)-(10bR)-8-benzylthio-4,10b-dimethyl-1,2,3,4,4a,5,6, 10b-octahydrobenzo[f]quinolin-3-one]	–	–
92%	61%	Cc1cccc(Sc2ccc3c(c2)CC[C@H]2N(C)C(=O)CC[C@]32C)c1 [Example 102, (+)-(4aR)-(10bR)-4,10b-dimethyl-8-(3-methylphenylthio)-1,2,3,4,-4a,5,6,10b-octahydrobenzo[f]quinolin-3-one]	–	–
67%	33%	CN1C(=O)CC[C@]2(C)c3ccc(-c4ccc5c6c(cccc46)CC5)cc3CC[C@@H]12 [Example 66, (+)-(4aR)-(10bR)-4-methyl-8-(5-acenaphthenyl)-10b-methyl-1,2,3,4,4a,5,6,10b-octahydrobenzo[f]quinolin-3-one]	–	–
16%	26%	CCN(CC)C(=O)c1ccccc1-c1ccc2c(c1)CC[C@H]1N(C)C(=O)CC[C@]21C [Example 74]	–	–
80%	86%	CN1C(=O)CC[C@]2(C)c3ccc(Sc4nc5c(ccc6ccccc65)s4)cc3CC[C@@H]12 [Example 163, (+)-(4aR)-(10bR)-4-methyl-8-(2-naphtho<1,2-d>-thiazolylthio)-10b-methyl-1,2,3,4,4a,5,6,10b-octahydrobenzo[f]-quinolin-3-one]	–	–
87%	40%	C[C@]12CCC(=O)N[C@@H]1CCc1cc(Sc3cccc4ccccc34)ccc12 [Example 11, (+)-(4aR)-(10bR)-8-(1-naphthylthio)-10b-methyl-1,2,3,4,4a,5,6,10b-octahydrobenzo[f]quinolin-3-one]	–	–
76%	26%	Cc1ccc(C(F)(F)F)c2sc(Sc3ccc4c(c3)CC[C@H]3N(C)C(=O)CC[C@]43C)nc12 [Example 190, (+)-(4aR)-(10bR)-4-methyl-8-(4-methyl-7-trifluoromethyl-2-benzothiazolylthio)-10b-methyl-1,2,3,4,4a,5,6,10b-octahydrobenzo[f]quinolin-3-one]	–	–
90%	45%	CC(C)c1cccc2sc(-c3ccc4c(c3)CC[C@H]3N(C)C(=O)CC[C@]43C)nc12 [Example 264, (+)-(4aR)-(10bR)-4-methyl-8-(2-[4-isopropyl]benzothiazolyl)-10b-methyl-1,2,3,4,4a,5,6,10b-octahydrobenzo[f]quinolin-3-one]	–	–
42%	40%	CN1C(=O)CC[C@]2(C)c3ccc(CC(=O)Nc4ccccc4)cc3CC[C@@H]12 [Example 277, (4aR)-(10bR)-4,10b-dimethyl-8-phenylaminocarbonylmethyl-1,2,3,4,4a,5,6,10b-octahydrobenzo[f]quinolin-3-one]	–	–
71%	70%	CN1C(=O)CC[C@]2(C)c3ccc(Sc4n[nH]c5ccccc45)cc3CC[C@@H]12 [Example 156, (+)-(4aR)-(10bR)-4-methyl-8-(3-indazolylthio)-10b-methyl-1,2,3,4,4a,5,6,10b-octahydrobenzo[f]quinolin-3-one]	–	–
46%	49%	CN1C(=O)C=C[C@]2(C)c3ccc(-c4cccc5ccccc45)cc3CC[C@@H]12 [Example 117, (+)-(4aR)-(10bR)-4-methyl-8-(1-naphthyl)-10b-methyl-3,4,4a,5,6,10b-hexahydrobenzo[f]quinolin-3-one]	–	–
63%	31%	CN1C(=O)CC[C@]2(C)c3ccc(Sc4cc(-c5ccccc5)cc(-c5ccccc5)n4)cc3CC[C@@H]12 [Example 181, (+)-(4aR)-(10bR)-4-methyl-8-(2-[4,6-diphenyl]pyridylthio)-10b-methyl-1,2,3,4,4a,5,6,10b-octahydrobenzo[f]quinolin-3-one]	–	–
